According to patent US20260365670A1, “EGFR INHIBITORS AND USES THEREOF” (DIZAL (JIANGSU) PHARMACEUTICAL CO., LTD., priority 2022, published 2026):
Like-named read-outs stand apart in the source and are kept apart here.

How the values were obtained:
EGFR Exon19Del/T790M = biological target: T1, EGFR Exon19Del/T790M (Homo sapiens, UniProt P00533, DEL746-750/T790M); assay: Inhibition of EGFR Exon19Del/T790M biochemical enzymatic activity (HTRF); settings: EGFR Del19-T790M, 1 mM ATP, 1 h, room temperature, read-out: IC50 (nM) @Del19-T790M
T1 construct: purchased Carna Bio
T1 sequence (P00533 with tags, fused parts or gaps DEL746-750/T790M limits assumed): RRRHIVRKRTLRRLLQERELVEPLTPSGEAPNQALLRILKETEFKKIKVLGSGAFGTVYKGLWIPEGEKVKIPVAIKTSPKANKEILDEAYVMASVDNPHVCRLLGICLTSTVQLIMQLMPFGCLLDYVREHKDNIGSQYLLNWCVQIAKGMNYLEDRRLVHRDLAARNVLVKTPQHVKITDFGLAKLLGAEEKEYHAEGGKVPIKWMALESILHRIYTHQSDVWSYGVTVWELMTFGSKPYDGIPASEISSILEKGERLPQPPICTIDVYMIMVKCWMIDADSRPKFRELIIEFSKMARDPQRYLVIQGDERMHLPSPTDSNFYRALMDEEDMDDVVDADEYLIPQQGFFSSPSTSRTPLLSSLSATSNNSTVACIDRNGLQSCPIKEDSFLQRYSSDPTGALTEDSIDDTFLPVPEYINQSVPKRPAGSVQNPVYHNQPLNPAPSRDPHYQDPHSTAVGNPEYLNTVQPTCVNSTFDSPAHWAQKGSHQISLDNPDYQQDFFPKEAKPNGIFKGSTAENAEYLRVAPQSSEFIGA
Method in brief: (§1)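 HTRF kinase assay: each EGFR enzyme phosphorylated 1 μM biotinylated TK substrate with 1 mM ATP in buffer containing 5 mM MgCl2, 1 mM MnCl2, 0.01% CHAPS, 1 mM DTT, 0.5% DMSO. After 1 h at room temperature, EDTA detection mix stopped the reaction. IC50 came from a four-parameter logistic fit of the 665/615 nm ratio.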

[1] = biological target: T2, EGFR[T790M/C797S/d746-750] (Homo sapiens, UniProt P00533, C797S/DEL746-750/T790M); assay: Inhibition of EGFR[T790M/C797S/d746-750] biochemical enzymatic activity (HTRF); settings: EGFR T790M-C797S-Del19, 1 mM ATP, 1 h, room temperature, read-out: IC50 (nM) @T790M - C797S - Del19
T2 construct: purchased Carna Bio
T2 sequence (P00533 with tags, fused parts or gaps DEL746-750/T790M/C797S limits assumed): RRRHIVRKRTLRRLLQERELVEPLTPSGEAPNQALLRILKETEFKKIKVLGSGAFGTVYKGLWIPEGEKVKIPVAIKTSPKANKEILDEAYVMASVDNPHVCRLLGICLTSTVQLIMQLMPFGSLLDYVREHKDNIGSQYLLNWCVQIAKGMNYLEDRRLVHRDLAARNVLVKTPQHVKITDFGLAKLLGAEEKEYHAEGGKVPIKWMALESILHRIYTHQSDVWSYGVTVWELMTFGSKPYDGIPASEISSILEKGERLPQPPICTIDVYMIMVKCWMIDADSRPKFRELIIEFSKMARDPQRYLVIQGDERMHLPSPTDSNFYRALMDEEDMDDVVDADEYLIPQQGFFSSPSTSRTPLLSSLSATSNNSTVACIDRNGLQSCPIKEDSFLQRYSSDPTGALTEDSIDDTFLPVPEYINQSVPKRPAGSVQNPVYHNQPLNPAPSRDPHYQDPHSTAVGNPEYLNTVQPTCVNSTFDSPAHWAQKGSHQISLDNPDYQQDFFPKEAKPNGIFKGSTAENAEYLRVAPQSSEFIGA
Method in brief: as §1

PC-9 = assay: Cell proliferation assay, PC-9 cells (CellTiter-Glo, 72 hours); format: cell-based; settings: Homo sapiens, PC-9, 72 h, PC9 cells, read-out: GI50 PC9
Method in brief: (§2)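 Ba/F3 cells carrying EGFR mutants (5000/well) or PC-9 cells (500/well) in RPMI1640 were dosed with compound series after overnight attachment and grown 72 h. Viability read by CellTiter-Glo, with day-0 counts subtracted; GI50 from curve fits of % proliferation versus DMSO control.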

EGFR wild type = biological target: T3, EGFR wild type (Homo sapiens, UniProt P00533); assay: Inhibition of EGFR wild type biochemical enzymatic activity (HTRF); settings: EGFR WT, 1 mM ATP, 1 h, room temperature, read-out: IC50 (nM) @WT
T3 construct: purchased Carna Bio
T3 sequence (P00533 25-1210): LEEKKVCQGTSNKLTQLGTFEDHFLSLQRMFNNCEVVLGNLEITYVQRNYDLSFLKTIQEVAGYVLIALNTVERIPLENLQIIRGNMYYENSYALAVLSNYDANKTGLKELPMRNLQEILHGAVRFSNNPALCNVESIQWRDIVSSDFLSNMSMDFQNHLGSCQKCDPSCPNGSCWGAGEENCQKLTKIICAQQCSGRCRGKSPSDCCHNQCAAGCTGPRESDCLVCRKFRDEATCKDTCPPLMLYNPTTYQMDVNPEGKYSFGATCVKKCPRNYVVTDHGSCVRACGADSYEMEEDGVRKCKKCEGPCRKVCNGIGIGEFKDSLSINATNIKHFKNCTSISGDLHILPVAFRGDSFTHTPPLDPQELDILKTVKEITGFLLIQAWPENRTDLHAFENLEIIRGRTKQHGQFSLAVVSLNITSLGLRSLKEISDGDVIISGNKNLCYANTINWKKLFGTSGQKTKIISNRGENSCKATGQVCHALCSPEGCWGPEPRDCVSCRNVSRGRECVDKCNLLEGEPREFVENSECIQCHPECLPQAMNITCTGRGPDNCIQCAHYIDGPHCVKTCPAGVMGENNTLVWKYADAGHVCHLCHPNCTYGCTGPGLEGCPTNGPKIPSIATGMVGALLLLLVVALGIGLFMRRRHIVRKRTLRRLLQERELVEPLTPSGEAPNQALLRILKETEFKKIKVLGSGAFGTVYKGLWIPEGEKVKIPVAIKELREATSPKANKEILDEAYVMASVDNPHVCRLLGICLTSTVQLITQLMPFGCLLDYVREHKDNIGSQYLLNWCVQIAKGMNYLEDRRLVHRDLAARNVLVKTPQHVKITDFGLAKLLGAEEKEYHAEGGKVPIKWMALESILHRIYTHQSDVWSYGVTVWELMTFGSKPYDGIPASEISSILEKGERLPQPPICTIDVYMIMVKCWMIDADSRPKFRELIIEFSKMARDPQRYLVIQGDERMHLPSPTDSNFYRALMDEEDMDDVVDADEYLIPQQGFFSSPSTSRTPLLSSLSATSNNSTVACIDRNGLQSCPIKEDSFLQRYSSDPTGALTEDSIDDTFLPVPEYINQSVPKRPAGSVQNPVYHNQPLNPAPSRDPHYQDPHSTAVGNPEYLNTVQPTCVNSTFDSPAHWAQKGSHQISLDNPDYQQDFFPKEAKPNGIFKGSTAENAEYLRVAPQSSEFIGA
Method in brief: as §1

A-431 = assay: Cell proliferation assay, A-431 cells (GI50, Table 6); format: cell-based; settings: Homo sapiens, A-431, A-431 cells
Method: [Worded in the source for another cell line; this cell line is reported under the same test.] Ba/F3 cells expressing EGFR mutations were seeded in 384-well plates at 5000 cells/well in RPMI1640 medium containing […]. PC-9 at 500 cells/well was seeded into 384-well plates in RPMI1640 medium with 10% FBS. After overnight incubation, the assay plates were dosed with compounds at a series of concentrations. Alongside dosing the assay plates, the day 0 plate was processed using CellTiter-Glo® Luminescent Cell Viability Assay (Promega) to measure the number of viable cells (G0). The assay plates were further incubated for 72 hours and the number of viable cells (G3) was measured. The percentage of proliferation was calculated as: […]=100×(G3 value of sample well−G0 value)/(G3 value of DMSO control−G0 value). The concentration of compound producing 50% proliferation inhibition (GI50) was further calculated in best-fit curves using XLFit software. N/A=not available.

EGFR (C797S L858R) = biological target: T4, EGFR (C797S L858R) (Homo sapiens, UniProt P00533, C797S/L858R); assay: Inhibition of EGFR (C797S L858R) biochemical enzymatic activity (HTRF); settings: EGFR L858-C797S, 1 mM ATP, 1 h, room temperature, read-out: IC50 (nM) @L858-C797S
T4 construct: purchased signalchem
Method in brief: as §1

EGFR Exon19Del = biological target: T5, EGFR Exon19Del (Homo sapiens, UniProt P00533, DEL746-750); assay: Inhibition of EGFR Exon19Del biochemical enzymatic activity (HTRF); settings: EGFR Del19, 1 mM ATP, 1 h, room temperature, read-out: IC50 @Del19
T5 construct: purchased Carna Bio
T5 sequence (P00533 with tags, fused parts or gaps DEL746-750 limits assumed): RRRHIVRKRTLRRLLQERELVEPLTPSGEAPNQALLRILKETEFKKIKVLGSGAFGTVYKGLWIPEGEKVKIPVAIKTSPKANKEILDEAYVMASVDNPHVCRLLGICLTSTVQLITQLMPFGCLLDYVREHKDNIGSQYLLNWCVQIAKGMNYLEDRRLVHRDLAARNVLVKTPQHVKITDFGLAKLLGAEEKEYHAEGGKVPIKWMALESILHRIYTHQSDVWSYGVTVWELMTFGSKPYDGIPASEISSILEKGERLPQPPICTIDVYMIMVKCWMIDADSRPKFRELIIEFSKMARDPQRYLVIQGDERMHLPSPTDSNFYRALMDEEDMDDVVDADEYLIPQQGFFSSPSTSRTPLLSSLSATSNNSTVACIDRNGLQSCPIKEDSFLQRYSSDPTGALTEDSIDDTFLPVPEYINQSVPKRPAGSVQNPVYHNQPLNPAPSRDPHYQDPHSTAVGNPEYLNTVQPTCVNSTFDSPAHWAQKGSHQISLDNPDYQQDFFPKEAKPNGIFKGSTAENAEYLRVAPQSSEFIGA
Method in brief: as §1

EGFR L858R = biological target: T6, EGFR L858R (Homo sapiens, UniProt P00533, L858R); assay: Inhibition of EGFR L858R biochemical enzymatic activity (HTRF); settings: 1 mM ATP, 1 h, room temperature, read-out: IC50 (nM) @L858R
T6 construct: purchased Carna Bio
Method in brief: as §1

EGFR[T790M/C797S/L858R] = biological target: T7, EGFR[T790M/C797S/L858R] (Homo sapiens, UniProt P00533, C797S/L858R/T790M); assay: Inhibition of EGFR[T790M/C797S/L858R] biochemical enzymatic activity (HTRF); settings: EGFR T790M-C797S-L858R, 1 mM ATP, 1 h, room temperature, read-out: IC50 (nM) @T790M- C797S - L858R
T7 construct: purchased Carna Bio
Method in brief: as §1

EGFR L858R/T790M = biological target: T8, EGFR L858R/T790M (Homo sapiens, UniProt P00533, L858R/T790M); assay: Inhibition of EGFR L858R/T790M biochemical enzymatic activity (HTRF); settings: EGFR L858R-T790M, 1 mM ATP, 1 h, room temperature, read-out: IC50 (nM) @L858R-T790M
T8 construct: purchased Carna Bio
T8 sequence (P00533 25-1210 T790M/L858R): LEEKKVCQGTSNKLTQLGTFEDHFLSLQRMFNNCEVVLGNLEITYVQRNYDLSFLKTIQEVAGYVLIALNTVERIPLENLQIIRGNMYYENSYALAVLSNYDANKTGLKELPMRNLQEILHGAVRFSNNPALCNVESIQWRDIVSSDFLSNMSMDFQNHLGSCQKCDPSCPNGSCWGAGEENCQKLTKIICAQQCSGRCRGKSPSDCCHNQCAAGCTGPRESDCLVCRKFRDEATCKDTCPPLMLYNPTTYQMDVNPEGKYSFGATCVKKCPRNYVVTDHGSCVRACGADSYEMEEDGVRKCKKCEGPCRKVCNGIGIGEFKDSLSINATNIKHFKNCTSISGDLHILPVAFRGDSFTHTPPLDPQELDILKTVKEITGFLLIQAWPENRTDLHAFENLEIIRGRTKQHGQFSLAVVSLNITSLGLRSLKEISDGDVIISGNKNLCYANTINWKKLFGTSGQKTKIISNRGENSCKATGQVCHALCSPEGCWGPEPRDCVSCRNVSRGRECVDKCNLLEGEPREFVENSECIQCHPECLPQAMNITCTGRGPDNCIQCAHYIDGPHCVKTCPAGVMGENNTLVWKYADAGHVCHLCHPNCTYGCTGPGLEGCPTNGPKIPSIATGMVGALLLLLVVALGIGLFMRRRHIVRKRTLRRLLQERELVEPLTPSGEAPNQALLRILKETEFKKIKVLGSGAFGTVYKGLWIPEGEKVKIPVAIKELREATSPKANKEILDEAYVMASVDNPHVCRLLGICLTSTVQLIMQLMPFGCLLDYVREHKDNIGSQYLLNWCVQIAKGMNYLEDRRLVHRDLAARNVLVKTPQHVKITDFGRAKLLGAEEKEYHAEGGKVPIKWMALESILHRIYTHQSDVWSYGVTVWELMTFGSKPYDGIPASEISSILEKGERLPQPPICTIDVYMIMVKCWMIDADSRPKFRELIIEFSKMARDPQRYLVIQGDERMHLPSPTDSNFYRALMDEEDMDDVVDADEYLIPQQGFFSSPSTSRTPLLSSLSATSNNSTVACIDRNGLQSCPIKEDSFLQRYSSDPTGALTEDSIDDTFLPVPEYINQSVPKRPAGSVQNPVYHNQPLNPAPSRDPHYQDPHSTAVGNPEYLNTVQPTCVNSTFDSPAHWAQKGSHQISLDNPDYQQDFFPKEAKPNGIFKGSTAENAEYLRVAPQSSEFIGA
Method in brief: as §1

EGFR (d746-750 C797S) = biological target: T9, EGFR (d746-750 C797S) (Homo sapiens, UniProt P00533, C797S/DEL746-750); assay: Inhibition of EGFR (d746-750 C797S) biochemical enzymatic activity (HTRF); settings: EGFR Del19-C797S, 1 mM ATP, 1 h, room temperature, read-out: IC50 (nM) @Del19-C797S
T9 construct: purchased signalchem
T9 sequence (P00533 with tags, fused parts or gaps DEL746-750/C797S limits assumed): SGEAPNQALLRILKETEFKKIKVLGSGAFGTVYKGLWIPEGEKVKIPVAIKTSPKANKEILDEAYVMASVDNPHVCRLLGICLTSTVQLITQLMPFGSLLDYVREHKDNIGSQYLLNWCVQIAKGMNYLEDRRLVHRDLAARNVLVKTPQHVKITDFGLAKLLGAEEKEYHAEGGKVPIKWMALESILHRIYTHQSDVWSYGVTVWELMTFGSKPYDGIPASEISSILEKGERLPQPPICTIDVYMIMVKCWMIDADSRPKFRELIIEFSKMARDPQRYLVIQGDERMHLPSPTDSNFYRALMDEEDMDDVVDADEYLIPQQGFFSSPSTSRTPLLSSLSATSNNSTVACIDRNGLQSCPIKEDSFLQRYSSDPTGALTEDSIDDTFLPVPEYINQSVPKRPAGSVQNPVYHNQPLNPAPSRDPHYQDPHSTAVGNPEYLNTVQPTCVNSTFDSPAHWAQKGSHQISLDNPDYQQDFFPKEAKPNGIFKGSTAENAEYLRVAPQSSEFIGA
Method in brief: as §1

[2] = system: Ba/F3 cells expressing EGFR mutations; assay: Cell proliferation assay, Ba/F3 cells expressing EGFR mutations (CellTiter-Glo, 72 hours); format: cell-based; settings: Mus musculus, BaF3, 72 h
Method in brief: as §2

[3] = BaF3 cells, EGFR DEL19 - C797S, read-out: GI50 DEL19 - C797S/BaF3
[4] = BaF3 cells, EGFR DEL19 - T790-C797S, read-out: GI50 DEL19 - T790-C797S/BaF3
[5] = BaF3 cells, EGFR L858R - C797S, read-out: GI50 L858R - C797S/BaF3
[6] = BaF3 cells, EGFR L858R - T790-C797S, read-out: GI50 L858R - T790-C797S/BaF3
[7] = BaF3 cells, EGFR L858R - T790M, read-out: GI50 L858R - T790M/BaF3
[8] = BaF3 cells, EGFR L858R, read-out: GI50 L858R/BaF3
[9] = EGFR DEL19 - T790M, read-out: GI50 DEL19 - T790M

Row | IC50 (EGFR Exon19Del/T790M) [nM] | IC50 [1] [nM] | GI50 (PC-9) [nM] | IC50 (EGFR wild type) [nM] | GI50 (A-431) [nM] | IC50 (EGFR (C797S L858R)) [nM] | IC50 (EGFR Exon19Del) [nM] | IC50 (EGFR L858R) [nM] | IC50 (EGFR[T790M/C797S/L858R]) [nM] | IC50 (EGFR L858R/T790M) [nM] | IC50 (EGFR (d746-750 C797S)) [nM] | GI50 [2, 3] [nM] | GI50 [2, 4] [nM] | GI50 [2, 5] [nM] | GI50 [2, 6] [nM] | GI50 [2, 7] [nM] | GI50 [2, 8] [nM] | GI50 [2, 9] [nM] | Compound
1 | 2.9 | 3.2 | 112 | 216 | 529 | 4.9 | 2.8 | 6.2 | 6.1 | 5.1 | 1.7 | 2.6 | 26 | 14 | 30 | 50 | 9.6 | 22 | C[C@@H]1CCCOc2ccc(F)cc2-c2cc(cn(C)c2=O)C(=O)Nc2nc3ccc(N4CCN(C)CC4)cc3n2C1 [Example A110, (12R)-4-fluoro-12,27-dimethyl-17-(4-methylpiperazin-1-yl)-8-oxa-14,21,23,27-tetraazapentacyclo[23.3.1.0^{2,7}.0^{14,22}.0^{15,20}]nonacosa-1(29),2(7),3,5,15,17,19,21,25-nonaene-24,28-dione]
2 | 3.3 | 2.5 | 57 | > 5000 | 1510 | 23 | 23 | 463 | 280 | 1910 | 8.1 | 4.3 | 20 | 38 | 32 | 80 | 16 | 12 | Cn1ncc2c1OCCN1CC3CCC(C3)(C1)n1c(nc3cc(F)ccc31)NC(=O)c1cc-2c(=O)n(C)c1 (stereo not drawn) [Example A117B, 6-fluoro-15,21-dimethyl-23-oxa-2,9,11,15,20,21,26-heptaazaheptacyclo[24.4.1.1^{1,28}.1^{13,17}.0^{2,10}.0^{3,8}.0^{18,22}]tritriaconta-3,5,7,9,13,17(33),18(22),19-octaene-12,16-dione]
3 | 7.4 | 2.9 | 16 | 3640 | 1120 | 37 | 8.7 | 110 | 11 | 61 | 3.2 | 0.68 | 4.1 | 8.2 | 6.7 | 19 | 3.8 | 1.8 | Cn1ncc2c1OCCN1CC3CCC(C3)(C1)n1c(nc3cc(F)c(N4CCOCC4)cc31)NC(=O)c1cc-2c(=O)n(C)c1 (single isomer, unassigned) [Example A118B]
